Source: patent publication US20160297833A1, “THIENOPYRIMIDINES AS MKNK1 AND MKNK2 INHIBITORS” (BAYER PHARMA AKTIENGESELLSCHAFT, priority 2013, published 2016)
pIC50: −log10 of the molar value.

Target: T1, human full-length MKNK1 (Homo sapiens, UniProt Q9BUB5, T385D)
T1 construct: GST (N); purchased Carna Biosciences 02-145; host or cells: insect cells (baculovirus expression system)
Experiment: MKNK1 kinase high ATP assay (TR-FRET)
Format: biochemical
Conditions: Table 1; MKNK1 kinase high ATP assay, 2 mM ATP; read-out: MKNK1 IC50
Method in brief: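 Full-length human MKNK1 (T385D) preincubated 15 min at 22 °C with compound in HEPES pH 7.5/MgCl2/DTT buffer; reaction with 2 mM ATP (final) and 0.06 μM biotinylated peptide (final), 30 min at 22 °C.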

T1 sequence (Q9BUB5 1-424 isoform Q9BUB5-2 T344D): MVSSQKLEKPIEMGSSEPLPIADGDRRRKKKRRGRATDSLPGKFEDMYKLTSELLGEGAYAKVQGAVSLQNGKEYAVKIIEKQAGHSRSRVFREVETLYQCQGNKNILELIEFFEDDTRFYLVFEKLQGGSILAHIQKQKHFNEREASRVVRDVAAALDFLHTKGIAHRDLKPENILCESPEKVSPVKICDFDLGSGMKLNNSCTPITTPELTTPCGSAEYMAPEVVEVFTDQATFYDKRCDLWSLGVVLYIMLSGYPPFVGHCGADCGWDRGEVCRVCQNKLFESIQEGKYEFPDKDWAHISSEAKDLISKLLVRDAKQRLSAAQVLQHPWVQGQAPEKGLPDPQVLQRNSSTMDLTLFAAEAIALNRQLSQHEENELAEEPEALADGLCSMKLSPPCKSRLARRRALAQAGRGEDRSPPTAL

| pIC50 | SMILES |
| --- | --- |
| 8.62 | CN(C)C(=O)[C@H]1CCc2c(sc3ncnc(Nc4cc5cn[nH]c5cc4OCCNC(=O)C(C)(C)C)c23)C1 [Example 257, (7S)-4-[(6-{2-[(2,2-Dimethylpropanoyl)amino]ethoxy}-1H-indazol-5-yl)amino]-N, N-dimethyl-5,6,7,8-tetrahydro[1]benzothieno[2,3-d]pyrimidine-7-carboxamide] |
| 9.40 | COC(=O)NCCOc1cc2[nH]ncc2cc1Nc1ncnc2sc3c(c12)CC[C@H](C(=O)N(C)C)C3 [Example 258, Methyl {2-[(5-{[(7S)-7-(dimethylcarbamoyl)-5,6,7,8-tetrahydro[1]benzothieno[2,3-d]pyrimidin-4-yl]amino}-1H-indazol-6-yl)oxy]ethyl}carbamate] |
| 7.84 | C[C@H](CNC(=O)OC(C)(C)C)Oc1cc2[nH]ncc2cc1Nc1ncnc2sc3c(c12)CC[C@H](C(=O)N(C)C)C3 [Example 259, tert-Butyl {(2R)-2-[(5-{[(7S)-7-(dimethylcarbamoyl)-5,6,7,8-tetrahydro[1]benzothieno[2,3-d]pyrimidin-4-yl]amino}-1H-indazol-6-yl)oxy]propyl}carbamate] |
| 9.70 | CC(C)OC(=O)NCCOc1cc2[nH]ncc2cc1Nc1ncnc2sc3c(c12)CC[C@H](C(=O)N(C)C)C3 [Example 260, Propan-2-yl {2-[(5-{[(7S)-7-(dimethylcarbamoyl)-5,6,7,8-tetrahydro[1]benzothieno[2,3-d]pyrimidin-4-yl]amino}-1H-indazol-6-yl)oxy]ethyl}carbamate] |
| 8.49 | CC(C)OC(=O)NC[C@@H](C)Oc1cc2[nH]ncc2cc1Nc1ncnc2sc3c(c12)CC[C@H](C(=O)N(C)C)C3 [Example 261, Propan-2-yl {(2R)-2-[(5-{[(7S)-7-(dimethylcarbamoyl)-5,6,7,8-tetrahydro[1]benzothieno[2,3-d]pyrimidin-4-yl]amino}-1H-indazol-6-yl)oxy]propyl}carbamate] |
| 9.70 | CCOC(=O)NCCOc1cc2[nH]ncc2cc1Nc1ncnc2sc3c(c12)CC[C@H](C(=O)N(C)C)C3 [Example 262, Ethyl {2-[(5-{[(7S)-7-(dimethylcarbamoyl)-5,6,7,8-tetrahydro[1]benzothieno[2,3-d]pyrimidin-4-yl]amino}-1H-indazol-6-yl)oxy]ethyl}carbamate] |
| 8.80 | CCOC(=O)NC[C@@H](C)Oc1cc2[nH]ncc2cc1Nc1ncnc2sc3c(c12)CC[C@H](C(=O)N(C)C)C3 [Example 263, Ethyl {(2R)-2-[(5-{[(7S)-7-(dimethylcarbamoyl)-5,6,7,8-tetrahydro[1]benzothieno[2,3-d]pyrimidin-4-yl]amino}-1H-indazol-6-yl)oxy]propyl}carbamate] |
| 8.92 | COC(=O)NC[C@@H](C)Oc1cc2[nH]ncc2cc1Nc1ncnc2sc3c(c12)CC[C@H](C(=O)N(C)C)C3 [Example 264, Methyl {(2R)-2-[(5-{[(7S)-7-(dimethylcarbamoyl)-5,6,7,8-tetrahydro[1]benzothieno[2,3-d]pyrimidin-4-yl]amino}-1H-indazol-6-yl)oxy]propyl}carbamate] |
| 9.05 | CN(C)C(=O)[C@H]1CCc2c(sc3ncnc(Nc4cc5cn[nH]c5cc4OC4CN(C(=O)OC(C)(C)C)C4)c23)C1 [Example 265, tert-Butyl 3-[(5-{[(7S)-7-(dimethylcarbamoyl)-5,6,7,8-tetrahydro[1]benzothieno[2,3-d]pyrimidin-4-yl]amino}-1H-indazol-6-yl)oxy]azetidine-1-carboxylate] |
| 9.05 | C[C@@H]1CN(C(=O)[C@H]2CCc3c(sc4ncnc(Nc5cc6cn[nH]c6cc5OC5CN(C(=O)OC(C)(C)C)C5)c34)C2)C[C@H](C)O1 [Example 266, tert-Butyl 3-[(5-{[(7S)-7-{[(2R,6S)-2,6-dimethylmorpholin-4-yl]carbonyl}-5,6,7,8-tetrahydro[1]benzothieno[2,3-d]pyrimidin-4-yl]amino}-1H-indazol-6-yl)oxy]azetidine-1-carboxylate] |
| 9.52 | C[C@H]1COCCN1C(=O)[C@H]1CCc2c(sc3ncnc(Nc4cc5cn[nH]c5cc4OC4CN(C(=O)OC(C)(C)C)C4)c23)C1 [Example 267, tert-Butyl 3-[(5-{[(7S)-7-{[(3S)-3-methylmorpholin-4-yl]carbonyl}-5,6,7,8-tetrahydro[1]benzothieno[2,3-d]pyrimidin-4-yl]amino}-1H-indazol-6-yl)oxy]azetidine-1-carboxylate] |
| 9.22 | C[C@H]1COCCN1C(=O)[C@H]1CCc2c(sc3ncnc(Nc4cc5cn[nH]c5cc4OC4CNC4)c23)C1 [Example 268, [(7S)-4-{[6-(Azetidin-3-yloxy)-1H-indazol-5-yl]amino}-5,6,7,8-tetrahydro[1]benzothieno[2,3-d]pyrimidin-7-yl][(3S)-3-methylmorpholin-4-yl]methanone] |
| 8.89 | CCC(=O)NCCOc1cc2[nH]ncc2cc1Nc1ncnc2sc3c(c12)CC[C@H](C(=O)N(C)C)C3 [Example 269, (7S)—N,N-Dimethyl-4-({6-[2-(propanoylamino)ethoxy]-1H-indazol-5-yl}amino)-5,6,7,8-tetrahydro[1]benzothieno[2,3-d]pyrimidine-7-carboxamide] |
| 8.96 | CCCC(=O)NCCOc1cc2[nH]ncc2cc1Nc1ncnc2sc3c(c12)CC[C@H](C(=O)N(C)C)C3 [Example 270, (7S)-4-({6-[2-(Butanoylamino)ethoxy]-1H-indazol-5-yl}amino)-N,N-dimethyl-5,6,7,8-tetrahydro[1]benzothieno[2,3-d]pyrimidine-7-carboxamide] |
| 9.30 | CC(C)CC(=O)NCCOc1cc2[nH]ncc2cc1Nc1ncnc2sc3c(c12)CC[C@H](C(=O)N(C)C)C3 [Example 271, (7S)—N,N-Dimethyl-4-[(6-{2-[(3-methylbutanoyl)amino]ethoxy}-1H-indazol-5-yl)amino]-5,6,7,8-tetrahydro[1]benzothieno[2,3-d]pyrimidine-7-carboxamide] |
| 8.89 | CN(C)C(=O)[C@H]1CCc2c(sc3ncnc(Nc4cc5cn[nH]c5cc4OCCNC(=O)CC(C)(C)C)c23)C1 [Example 272, (7S)-4-[(6-{2-[(3,3-Dimethylbutanoyl)amino]ethoxy}-1H-indazol-5-yl)amino]-N,N-dimethyl-5,6,7,8-tetrahydro[1]benzothieno[2,3-d]pyrimidine-7-carboxamide] |
| 9.40 | CN(C)C(=O)[C@H]1CCc2c(sc3ncnc(Nc4cc5cn[nH]c5cc4OCCNC(=O)CC4CCCC4)c23)C1 [Example 273, (7S)-4-[(6-{2-[(Cyclopentylacetyl)amino]ethoxy}-1H-indazol-5-yl)amino]-N,N-dimethyl-5,6,7,8-tetrahydro[1]benzothieno[2,3-d]pyrimidine-7-carboxamide] |
| 9.52 | CN(C)C(=O)[C@H]1CCc2c(sc3ncnc(Nc4cc5cn[nH]c5cc4OCCNC(=O)CC4CCCCC4)c23)C1 [Example 274, (7S)-4-[(6-{2-[(Cyclohexylacetyl)amino]ethoxy}-1H-indazol-5-yl)amino]-N,N-dimethyl-5,6,7,8-tetrahydro[1]benzothieno[2,3-d]pyrimidine-7-carboxamide] |
| 8.36 | CN(C)C(=O)[C@H]1CCc2c(sc3ncnc(Nc4cc5cn[nH]c5cc4OCCNCC(C)(C)C)c23)C1 [Example 275, (7S)-4-[(6-{2-[(2,2-Dimethylpropyl)amino]ethoxy}-1H-indazol-5-yl)amino]-N,N-dimethyl-5,6,7,8-tetrahydro[1]benzothieno[2,3-d]pyrimidine-7-carboxamide] |
| 7.99 | CN(C)C(=O)[C@H]1CCc2c(sc3ncnc(Nc4cc5cn[nH]c5cc4OCCCN4CC(F)C4)c23)C1 [Example 276, (7S)-4-({6-[3-(3-Fluoroazetidin-1-yl)propoxy]-1H-indazol-5-yl}amino)-N,N-dimethyl-5,6,7,8-tetrahydro[1]benzothieno[2,3-d]pyrimidine-7-carboxamide] |
| 7.23 | CN(C)C(=O)[C@H]1CCc2c(sc3ncnc(Nc4cc5cn[nH]c5cc4OCCCN4CCCC4)c23)C1 [Example 277, (7S)—N,N-Dimethyl-4-({6-[3-(pyrrolidin-1-yl)propoxy]-1H-indazol-5-yl}amino)-5,6,7,8-tetrahydro[1]benzothieno[2,3-d]pyrimidine-7-carboxamide] |
| 7.27 | CN(C)C(=O)[C@H]1CCc2c(sc3ncnc(Nc4cc5cn[nH]c5cc4OCCCN4CCCCC4)c23)C1 [Example 278, (7S)—N,N-Dimethyl-4-({6-[3-(piperidin-1-yl)propoxy]-1H-indazol-5-yl}amino)-5,6,7,8-tetrahydro[1]benzothieno[2,3-d]pyrimidine-7-carboxamide] |
| 7.07 | CC(C)(C)COc1cc2[nH]ncc2cc1Nc1ncnc2sc3c(c12)CC[C@H](C(=O)N1CCOCC1)C3 [Example 279, [(7S)-4-{[6-(2,2-Dimethylpropoxy)-1H-indazol-5-yl]amino}-5,6,7,8-tetrahydro[1]benzothieno[2,3-d]pyrimidin-7-yl](morpholin-4-yl)methanone] |
| 9.00 | CN(C)C(=O)[C@H]1CCc2c(sc3ncnc(Nc4cc5cn[nH]c5cc4O[C@H]4CCOC4)c23)C1 [Example 280, (7S)—N,N-Dimethyl-4-({6-[(3S)-tetrahydrofuran-3-yloxy]-1H-indazol-5-yl}amino)-5,6,7,8-tetrahydro[1]benzothieno[2,3-d]pyrimidine-7-carboxamide] |
| 9.10 | COc1cc2[nH]ncc2cc1Nc1ncnc2sc3c(c12)CC[C@H](C(=O)N(C)C[C@@H](C)OC)C3 [Example 281, (7S)-4-[(6-Methoxy-1H-indazol-5-yl)amino]-N-[(2R)-2-methoxypropyl]-N-methyl-5,6,7,8-tetrahydro[1]benzothieno[2,3-d]pyrimidine-7-carboxamide] |
| 9.30 | COc1cc2[nH]ncc2cc1Nc1ncnc2sc3c(c12)CC[C@H](C(=O)N(C)C[C@H](C)OC)C3 [Example 282, (7S)-4-[(6-Methoxy-1H-indazol-5-yl)amino]-N-[(2S)-2-methoxypropyl]-N-methyl-5,6,7,8-tetrahydro[1]benzothieno[2,3-d]pyrimidine-7-carboxamide] |
